Laboratory results as given in ChEMBL document CHEMBL4813981, “Synthesis and in vitro antibacterial activity of new aminothiazole-oximepiperidone cephalosporins” (2021).
≈ marks a conversion by molar mass, not a printed value.

Key:
Escherichia coli [1] = assay: Ratio of MBC to MIC for ESBLs negative Carbapenem-sensitive Escherichia coli 17-20 assessed as reduction in bacterial growth; type: functional
Enterobacter cloacae [2] = assay: Ratio of MBC to MIC for Enterobacter cloacae 17-9 assessed as reduction in bacterial growth; type: functional
Klebsiella pneumoniae [3] = assay: Ratio of MBC to MIC for Klebsiella pneumoniae ATCC BAA-1705 assessed as reduction in bacterial growth; type: functional
Escherichia coli [4] = assay: Ratio of MBC to MIC for ESBLs positive Carbapenem-sensitive Escherichia coli 17-18 assessed as reduction in bacterial growth; type: functional
Klebsiella aerogenes [5] = assay: Ratio of MBC to MIC for Enterobacter aerogenes 17-3 assessed as reduction in bacterial growth in the presence of Avibactam; type: functional
Enterobacter cloacae [6] = assay: Ratio of MBC to MIC for Enterobacter cloacae 17-3 assessed as reduction in bacterial growth in the presence of Avibactam; type: functional
Escherichia coli [7] = assay: Antibacterial activity against ESBLs positive Carbapenem-sensitive Escherichia coli 17-8 assessed as reduction in bacterial growth in the presence of Avibactam; type: functional
Pseudomonas aeruginosa [8] = assay: Ratio of MBC to MIC for Pseudomonas aeruginosa ATCC 27853 assessed as reduction in bacterial growth; type: functional
Klebsiella pneumoniae [9] = assay: Antibacterial activity against ESBLs positive Carbapenem-sensitive Klebsiella pneumoniae 17-10 assessed as reduction in bacterial growth in the presence of Avibactam; type: functional
Escherichia coli [10] = assay: Antibacterial activity against ESBLs negative Carbapenem-sensitive Escherichia coli 17-4 assessed as reduction in bacterial growth in the presence of Avibactam; type: functional
Klebsiella aerogenes [11] = assay: Antibacterial activity against Enterobacter aerogenes 15-4 assessed as reduction in bacterial growth in the presence of Avibactam; type: functional
Enterobacter cloacae [12] = assay: Antibacterial activity against Enterobacter cloacae 17-3 assessed as reduction in bacterial growth in the presence of Avibactam; type: functional
Escherichia coli [13] = assay: Ratio of MBC to MIC for ESBLs positive carbapenem-negative Escherichia coli 17-3 assessed as reduction in bacterial growth in the presence of Avibactam; type: functional
Escherichia coli [14] = assay: Ratio of MBC to MIC for ESBLs positive carbapenem-negative Escherichia coli 17-10 assessed as reduction in bacterial growth in the presence of Avibactam; type: functional
Klebsiella aerogenes [15] = assay: Antibacterial activity against Enterobacter aerogenes 15-6 assessed as reduction in bacterial growth in the presence of Avibactam; type: functional
Enterobacter cloacae [16] = assay: Antibacterial activity against Enterobacter cloacae 17-8 assessed as reduction in bacterial growth
Escherichia coli [17] = assay: Antibacterial activity against ESBLs negative Carbapenem-sensitive Escherichia coli 17-19 assessed as reduction in bacterial growth in the presence of Avibactam; type: functional
Escherichia coli [18] = assay: Antibacterial activity against Escherichia coli 15-3 overexpressing extended spectrum beta-lactamases assessed as reduction in bacterial growth in the presence of Avibactam; type: functional
Klebsiella pneumoniae [19] = assay: Antibacterial activity against ESBLs negative Carbapenem-sensitive Klebsiella pneumoniae 17-16 assessed as reduction in bacterial growth in the presence of Avibactam; type: functional
Klebsiella pneumoniae [20] = assay: Ratio of MBC to MIC for ESBLs negative Carbapenem-sensitive Klebsiella pneumoniae 17-16 assessed as reduction in bacterial growth; type: functional
Enterobacter cloacae [21] = assay: Ratio of MBC to MIC for Enterobacter cloacae 17-2 assessed as reduction in bacterial growth in the presence of Avibactam; type: functional
Escherichia coli [22] = assay: Ratio of MBC to MIC for ESBLs negative Carbapenem-sensitive Escherichia coli 17-9 assessed as reduction in bacterial growth; type: functional
Klebsiella aerogenes [23] = assay: Ratio of MBC to MIC for Enterobacter aerogenes 17-1 assessed as reduction in bacterial growth; type: functional
Enterobacter cloacae [24] = assay: Ratio of MBC to MIC for Enterobacter cloacae 17-9 assessed as reduction in bacterial growth in the presence of Avibactam; type: functional
Klebsiella aerogenes [25] = assay: Antibacterial activity against Enterobacter aerogenes 17-3 assessed as reduction in bacterial growth
Klebsiella pneumoniae [26] = assay: Antibacterial activity against ESBLs positive Carbapenem-sensitive Klebsiella pneumoniae 17-11 assessed as reduction in bacterial growth in the presence of Avibactam; type: functional
Klebsiella pneumoniae [27] = assay: Ratio of MBC to MIC for ESBLs negative Carbapenem-sensitive Klebsiella pneumoniae 17-17 assessed as reduction in bacterial growth in the presence of Avibactam; type: functional
Acinetobacter baumannii = assay: Antibacterial activity against Carbapenem- resistant Acinetobacter baumannii 17-11 assessed as reduction in bacterial growth
Escherichia coli [28] = assay: Antibacterial activity against ESBLs positive Carbapenem-sensitive Escherichia coli 17-2 assessed as reduction in bacterial growth in the presence of Avibactam; type: functional
Klebsiella aerogenes [29] = assay: Bactericidal activity against Enterobacter aerogenes 17-4 assessed as reduction in bacterial growth; type: functional
Escherichia coli [30] = assay: Ratio of MBC to MIC for ESBLs negative carbapenem-negative Escherichia coli 17-9 assessed as reduction in bacterial growth in the presence of Avibactam; type: functional
Pseudomonas aeruginosa [31] = assay: Bactericidal activity against Carbapenem- resistant Pseudomonas aeruginosa 17-1 assessed as reduction in bacterial growth; type: functional
Pseudomonas aeruginosa [32] = assay: Ratio of MBC to MIC for carbapenem-sensitive Pseudomonas aeruginosa 17-26 assessed as reduction in bacterial growth; type: functional
Pseudomonas aeruginosa [33] = assay: Ratio of MBC to MIC for carbapenem-sensitive Pseudomonas aeruginosa 17-9 assessed as reduction in bacterial growth; type: functional
Escherichia coli [34] = assay: Ratio of MBC to MIC for ESBLs negative Carbapenem-sensitive Escherichia coli 17-7 assessed as reduction in bacterial growth; type: functional
Klebsiella pneumoniae [35] = assay: Ratio of MBC to MIC for ESBLs positive Carbapenem-sensitive Klebsiella pneumoniae 17-12 assessed as reduction in bacterial growth; type: functional
Klebsiella pneumoniae [36] = assay: Ratio of MBC to MIC for ESBLs negative Carbapenem-sensitive Klebsiella pneumoniae 17-16 assessed as reduction in bacterial growth in the presence of Avibactam; type: functional
Klebsiella aerogenes [37] = assay: Ratio of MBC to MIC for Enterobacter aerogenes 17-4 assessed as reduction in bacterial growth in the presence of Avibactam; type: functional
Enterobacter cloacae [38] = assay: Antibacterial activity against Enterobacter cloacae 17-1 assessed as reduction in bacterial growth in the presence of Avibactam; type: functional
Pseudomonas aeruginosa [39] = assay: Antibacterial activity against Carbapenem- sensitive Pseudomonas aeruginosa 17-30 assessed as reduction in bacterial growth in the presence of Avibactam; type: functional
Klebsiella pneumoniae [40] = assay: Ratio of MBC to MIC for Carbapenem-resistant Klebsiella pneumoniae KR 15-8 assessed as reduction in bacterial growth in the presence of Avibactam; type: functional
Enterobacter cloacae [41] = assay: Bactericidal activity against Enterobacter cloacae 17-9 assessed as reduction in bacterial growth; type: functional
Enterobacter cloacae [42] = assay: Bactericidal activity against Enterobacter cloacae 17-8 assessed as reduction in bacterial growth; type: functional
Klebsiella pneumoniae [43] = assay: Antibacterial activity against ESBLs negative Carbapenem-sensitive Klebsiella pneumoniae 17-17 assessed as reduction in bacterial growth
Klebsiella aerogenes [44] = assay: Antibacterial activity against Enterobacter aerogenes 17-4 assessed as reduction in bacterial growth
Escherichia coli [45] = assay: Bactericidal activity against ESBLs positive Carbapenem-sensitive Escherichia coli 17-10 assessed as reduction in bacterial growth; type: functional

`Nc1nc(/C(=N/OCc2cc(=O)c(O)cn2O)C(=O)N[C@@H]2C(=O)N3C(C(=O)O)=CCS[C@H]23)cs1` gave a Ratio (Escherichia coli [1]) of over 8, a Ratio (Enterobacter cloacae [2]) of 1 and a Ratio (Klebsiella pneumoniae [3]) of over 1. For the same molecule, the Ratio (Escherichia coli [4]) was 4, the Ratio (Klebsiella aerogenes [5]) was 1 and the Ratio (Enterobacter cloacae [6]) was 4. For the same molecule, the MIC (Escherichia coli [7]) was 0.5 µg/mL, the Ratio (Pseudomonas aeruginosa [8]) was 16 and the MIC (Klebsiella pneumoniae [9]) was 1 µg/mL. The MIC (Escherichia coli [10]) was 0.125 µg/mL, the MIC (Klebsiella aerogenes [11]) was 0.5 µg/mL and the MIC (Enterobacter cloacae [12]) was 2 µg/mL. For the same molecule, the Ratio (Escherichia coli [13]) was 2, the Ratio (Escherichia coli [14]) was 8 and the MIC (Klebsiella aerogenes [15]) was 0.5 µg/mL. For the same molecule, the MIC (Enterobacter cloacae [16]) was 16 µg/mL (≈ 31.5 µM), the MIC (Escherichia coli [17]) was 0.5 µg/mL and the MIC (Escherichia coli [18]) was 1 µg/mL. It also gave an MIC (Klebsiella pneumoniae [19]) of 0.06 µg/mL, a Ratio (Klebsiella pneumoniae [20]) of 1 and a Ratio (Enterobacter cloacae [21]) of 8. It also gave a Ratio (Escherichia coli [22]) of 4, a Ratio (Klebsiella aerogenes [23]) of 2 and a Ratio (Enterobacter cloacae [24]) of 1. It also gave an MIC (Klebsiella aerogenes [25]) of 2 µg/mL (≈ 3.93 µM), an MIC (Klebsiella pneumoniae [26]) of 4 µg/mL and a Ratio (Klebsiella pneumoniae [27]) of 8. The MIC (Acinetobacter baumannii) was over 64 µg/mL, the MIC (Escherichia coli [28]) was 0.25 µg/mL and the MBC (Klebsiella aerogenes [29]) was 16 µg/mL (≈ 31.5 µM). For the same molecule, the Ratio (Escherichia coli [30]) was 4, the MBC (Pseudomonas aeruginosa [31]) was 64 µg/mL (≈ 126 µM) and the Ratio (Pseudomonas aeruginosa [32]) was over 8. For the same molecule, the Ratio (Pseudomonas aeruginosa [33]) was 4, the Ratio (Escherichia coli [34]) was 2 and the Ratio (Klebsiella pneumoniae [35]) was 2. The Ratio (Klebsiella pneumoniae [36]) was 1, the Ratio (Klebsiella aerogenes [37]) was 1 and the MIC (Enterobacter cloacae [38]) was 1 µg/mL. For the same molecule, the MIC (Pseudomonas aeruginosa [39]) was 0.25 µg/mL and the Ratio (Klebsiella pneumoniae [40]) was 4.
With `CC(C)(O/N=C(\C(=O)N[C@@H]1C(=O)N2C(C(=O)[O-])=C(C[n+]3ccccc3)CS[C@H]12)c1csc(N)n1)C(=O)O` [CEFTAZIDIME] the MBC (Enterobacter cloacae [41]) was over 4 µg/mL, the MBC (Enterobacter cloacae [42]) was 1 µg/mL (≈ 1.83 µM) and the MIC (Klebsiella pneumoniae [43]) was 0.125 µg/mL (≈ 0.229 µM). It also gave an MIC (Klebsiella aerogenes [44]) of 8 µg/mL (≈ 14.6 µM) and an MBC (Escherichia coli [45]) of 16 µg/mL (≈ 29.3 µM).
